# Molecular target: T1, TEC (Homo sapiens, UniProt P42680)
# T1 construct: purchased Reaction Biology Corporation
# T1 sequence (P42680 1-631): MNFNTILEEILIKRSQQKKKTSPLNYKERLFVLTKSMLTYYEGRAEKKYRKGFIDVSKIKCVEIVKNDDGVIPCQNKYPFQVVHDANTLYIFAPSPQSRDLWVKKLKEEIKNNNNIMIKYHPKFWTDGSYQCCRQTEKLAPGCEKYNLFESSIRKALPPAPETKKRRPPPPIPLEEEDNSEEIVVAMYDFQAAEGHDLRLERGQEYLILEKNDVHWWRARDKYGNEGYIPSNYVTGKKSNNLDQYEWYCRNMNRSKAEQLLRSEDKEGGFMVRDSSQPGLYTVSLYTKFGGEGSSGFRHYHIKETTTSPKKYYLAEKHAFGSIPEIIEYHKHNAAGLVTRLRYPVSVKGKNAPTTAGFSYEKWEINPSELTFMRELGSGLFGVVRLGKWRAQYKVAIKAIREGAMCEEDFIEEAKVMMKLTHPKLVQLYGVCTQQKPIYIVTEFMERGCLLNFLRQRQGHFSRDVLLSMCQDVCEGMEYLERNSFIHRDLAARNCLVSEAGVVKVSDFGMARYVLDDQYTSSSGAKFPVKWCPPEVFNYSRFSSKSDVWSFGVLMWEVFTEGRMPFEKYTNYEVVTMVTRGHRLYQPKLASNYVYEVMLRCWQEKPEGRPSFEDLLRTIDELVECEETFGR
# Experiment: TEC kinase profiling (BTK protocol)
# Format: biochemical
# Conditions: compound 0.3 μM; read-out: TEC @ 0.3 μM (% Inh)
# Procedure: BTK assay: In vitro profiling protein kinases was performed using the “HotSpot” assay platform. Briefly, specific kinase/substrate pairs along with required cofactors were prepared in reaction buffer. Compounds were prepared as 10 mM stock solutions in DMSO. Compounds were delivered into the reaction, followed 15-20 minutes later by addition of a mixture of ATP (Sigma, St. Louis Mo.) and ^33P ATP (Perkin Elmer, Waltham Mass.) to a final concentration of 10 μM. Reactions were carried out at RT for 120 min, followed by spotting of the reactions onto P81 ion exchange filter paper (Whatman Inc., Piscataway, N.J.). Unbound phosphate was removed by extensive washing of filters in 0.75% Phosphoric acid. […] ICso values and curve fits were obtained using Prism (GraphPad Software). Buffer Conditions: 20 mM Hepes (pH 7.5), 10 mM MgCl2, 1 mM EGTA, 0.02% Brij35, 0.02 mg/mL BSA, 0.1 mM Na3VO4, 2 mM DTT, 1% DMSO.
# Compounds of the invention were profiled in a 10 dose IC50 panel against BMX/ETK, ITK and TEC kinases, provided by Reaction Biology Corporation, applied to the BTK protocol provided in Example B1.
row,inhibition at 0.3 µM [%],SMILES
1,72.6,"C=CC(=O)N(CCn1nc(-c2cc(O)cc(F)c2)c2c(N)ncnc21)c1ccccc1 [Compound 2, N-(2-(4-amino-3-(3-fluoro-5-hydroxyphenyl)-1H-pyrazolo[3,4-d]pyrimidin-1-yl)ethyl)-N-phenylacrylamide]"
2,68.7,"C=CC(=O)N(CCn1nc(-c2cc(O)cc(F)c2)c2c(N)ncnc21)Cc1ccccc1F [Compound 11, N-[2-[4-amino-3-(3-fluoro-5-hydroxy-phenyl)pyrazolo[3,4-d]pyrimidin-1-yl]ethyl]-N-[(2-fluorophenyl)methyl]prop-2-enamide]"
3,48.8,"C=CC(=O)N(CCn1nc(-c2cc(O)cc(F)c2)c2c(N)ncnc21)Cc1ccccc1 [Compound 5, N-(2-(4-amino-3-(3-fluoro-5-hydroxyphenyl)-1H-pyrazolo[3,4-d]pyrimidin-1-yl)ethyl)-N-benzylacrylamide]"

# Further lines, the molecule ahead of its results:
row,SMILES,inhibition at 0.3 µM [%]
1,"Nc1ncnc2c1c(-c1cc(O)cc(F)c1)nn2CCNc1ccccc1 [Compound 1, 3-(4-amino-1-(2-(phenylamino)ethyl)-1H-pyrazolo [3,4-d]pyrimidin-3-yl)-5-fluorophenol]",-1.13
2,"C=CC(=O)N(CCn1nc(-c2cc(O)cc(F)c2)c2c(N)ncnc21)Cc1ccc(Cl)cc1 [Compound 12, N-{2-[4-amino-3-(3-fluoro-5-hydroxyphenyl)-1H-pyrazolo[3,4-d]pyrimidin-1-yl]ethyl}-N-[(4-chlorophenyl)methyl]prop-2-enamide]",71.6
3,"C=CC(=O)N(CCn1nc(-c2cc(O)cc(F)c2)c2c(N)ncnc21)Cc1ccc(F)cc1 [Compound 10, N-{2-[4-amino-3-(3-fluoro-5-hydroxyphenyl)-1H-pyrazolo [3,4-d]pyrimidin-1-yl]ethyl}-N-[(4-fluorophenyl)methyl]prop-2-enamide]",66.1
4,"C=CC(=O)N(CCn1nc(-c2cc(O)c(F)c(F)c2)c2c(N)ncnc21)Cc1ccc(Cl)cc1 [Compound 16, N-{2-[4-amino-3-(3,4-difluoro-5-hydroxyphenyl)-1H-pyrazolo[3,4-d]pyrimidin-1-yl]ethyl}-N-[(4-chlorophenyl)methyl]prop-2-enamide]",75

# Tested on: CD69+B220+ cells (mouse spleen cells)
# Experiment: B cell activation assay (IgD-stimulated CD69 on B220+ spleen cells, FACS)
# Format: cell-based
# Conditions: IgD 3 μg/mL 4 h
row,IC50 [nM],SMILES
1,55.1 ± 38.3,"Nc1ncnc2c1c(-c1cc(O)cc(F)c1)nn2CCNc1ccccc1 [Compound 1, 3-(4-amino-1-(2-(phenylamino)ethyl)-1H-pyrazolo [3,4-d]pyrimidin-3-yl)-5-fluorophenol]"

# From patent US20160272645A1, “Heterocyclic Compounds and Methods of Use” (MEDIVATION TECHNOLOGIES, INC., priority 2013, published 2016)
